This is an account of results in patent publication US6545041B2, “Tumor necrosis factor alpha (TNF-α) inhibiting pharmaceuticals” (Yessum Research Development Co. of the Hebrew University of …, priority 1995, dated 2003).

The test system of test [1] is TNF. Put plainly: Serum TNF activity (bioassay) and levels (ELISA) in LPS treated mice. Type of test: in vivo, mice (C57BL/6). To be noted: 100 μg LPS ip with 200 μg/mouse compound, 90 min. The method, then:
An early response to LPS administration is the elevation of serum levels of TNF, which peaks at 1.5-2 hr after LPS administration. Mice treated with LPS serve as a model for the effect of drugs on reducing TNF levels under these conditions.
Serum levels of TNF peak within 1.5 hr following LPS administration, and at this time point, we assessed both TNF activity and levels in the serum.
Mice (C57BL/6) were injected ip with 100 μg LPS, concomitantly with HU-211, HU-210, or HU-245 (200 μg/mouse), and 90 min later they were bled, the sera separated and TNF was assayed for its activity (bioassay) and levels (using ELISA kit).
On the technique in general: ELISA stands for enzyme-linked immunosorbent assay.

Test [2] has as its system D-galactosamine (D-GALN)-sensitized mice. Description: Lethal toxicity by LPS in D-galactosamine-sensitized mice (endotoxic shock). Type of test: in vivo, mice (C57BL/6). To be noted: for lethality in HU-211 treated group dead/total: LPS 10 ng/mouse + D-GALN, HU-211 7.5 mg/kg plus 8 hourly injections, 24 hrs, exp. no 1-3 and total, controls 20/20, 7.5 mg/kg. The protocol:
The effect of HU-211 in endotoxic shock was assessed in a model of lethal toxicity by lipopolysacharide (LPS) in D-galactosamine (D-GALN)-sensitized mice (Galanos et al. PNAS 76: 5739, 1979, Lehman et al. J. Exp. Med. 165: 657, 1987). In this model 100% mortality occurs within 6-8 hrs of administration of the combined treatment.
LPS (10 ng/mouse) and D-GALN ([…]) were coadministered to 20 mice (C57BL/6). Half of the mice served as controls, and the other were treated within 5 min of injection with HU-211 (7.5 mg/kg body weight), followed by 8 additional injections every hour. The survival was followed up to 24 hrs, and the results of this experiment are depicted in Table 1.

Test [3] has as its system TNF. Description: Closed head injury (head trauma) model in rats: TNF, edema, clinical outcome. To be noted: FIG. 4. Type of test: in vivo, rat. From the text: Closed head injury is associated with high mortality and morbidity. It induces edema formation, blood-brain-barrier (BBB) disruption, neuronal cell death and impairment of motor and cognitive functions. Animals subjected to head trauma in a controlled fashion serve as models in which to test drugs of therapeutic potential. Test compounds can be evaluated both for improved clinical outcome and for reduction of edema induced by closed head injury. The ability of compounds to reduce the severity of neurological symptoms and to reduce brain edema is considered a measure of their potency in reducing brain damage.
The effect of HU-211 on TNF production was assessed in a model of head trauma (HT) in rats. Injury was induced in anesthetized rats by a weight-drop device followed by a recovery period of up to 30 days. This type of trauma produces brain edema (i.e. increase in water content, decrease in specific gravity in the brain), breakdown of the blood brain barrier (BBB), clinical and cognitive dysfunction. […]
In this experiment we compared the effects of two agents: 1) pentoxyfilline (PTX), a methylxanthine known for its ability to prevent or attenuate the LPS-induced release of TNF both in vitro and in vivo. […] The levels of TNF were measured after CHI in order to determine whether the beneficial effect of HU-211 is also associated with suppression of TNF production or activity.

Test [4] has as its system collagen induced arthritis. Put plainly: Collagen type 2 induced arthritis. Type of test: in vivo, CD-1 male mice. To be noted: HU-211 20 mg/kg i.p. daily or every 3 days; p<0.01. The method, then:
CD-1 male mice (27-33 gr.), five in each treatment group (supplied by Harlan Israel) were used in the present study. Each animal was administered with collagen type 2 (Sigma, batch no. 111H7180) 100 μg/ml in 0.1 ml complete Freund's adjuvant (Sigma batch no. 084H8800). The collagen was administered s.c. into the base of the tail. The volume of each hind paw was measured using a plathysmometer (Hugo Basill, Italy) before collagen administration and on days 1, 4, 7, 10, 13 and 16 of treatment (30 minutes after drug treatment).
Five treatment groups were tested in the present study: vehicle (blank cosolvent) 10 ml/kg once daily, HU-211 10 mg/kg every three days, HU-211 20 mg/kg once daily, HU-211 20 mg/kg every 3 days and diclofenac 10 mg/kg (10 ml/kg) every 3 days. All treatments were administered intraperitoneally. HU-211 was used from a 5% preparation in cosolvent (Pharmos batch no. PRN-C-08623041), by diluting with saline (B. Braun batch no. 3431A41A) 1:25. The same procedure was performed with blank cosolvent (Pharmos batch no. 608945). Diclofenac was prepared in Pharmos, batch no. LG-121\70 1 mg/ml. At the same time paws were measured they were clinically evaluated according to the following method (Williams R. O., Proc. Natl. Acad. Sci. USA: 89:9784-9788): 0—normal, 1—slight swelling and erythema, 2—pronounced edematous swelling and 3—joint rigidity. […]

Test [5] deals with TNF. To be noted: rats, 48 hours after HT; cited from earlier work.

Several values for one entry are separate records, joined by “and”; a condition that tells them apart may be missing. Equal values may be shown once. Entries after “also recorded” stand apart in the source; their conditions may differ.

Regarding `CCCCCCC(C)(C)c1cc(O)c2c(c1)OC(C)(C)[C@H]1CC=C(CO)C[C@H]21` [HU-211, (+)-(3S,4S)-1,1-dimethylheptyl homologue of 7-hydroxy-Δ^6-tetrahydrocannabinol], the “TNF levels in serum (ELISA)” value in test [1] was “significantly reduced; also recorded: attenuated the LPS-induced production and action of TNF to a very pronounced extent”. For the same molecule, in test [1] (LPS control 1233±237), the “TNF activity (S50) in serum, bioassay” value was “significantly reduced; also recorded: attenuated the LPS-induced production and action of TNF to a very pronounced extent”. Besides, the “lethality in HU-211 treated group dead/total” value in test [2] is 1/5 and 1/10 and 0/5; in test [2] (pooled total of all experiments) it was 2/20. In addition, the survival in test [2] (LPS + D-GALN mice, HU-211 7.5 mg/kg, total of experiments, controls 0%) is listed as 90%. Besides, the “brain levels of TNF after CHI, compared with pentoxyfilline” value in test [3] is “significantly superior to that of pentoxyfilline”. Also, the “brain tissue water content (anti-edema effect) after CHI, compared with pentoxyfilline” value in test [3] is “significantly superior to that of pentoxyfilline”. In addition, the “clinical signs of arthritis (swelling of the paws)” value in test [4] is listed as “lowest number of these signs”. Besides, the “edema and clinical outcome after head trauma” value in test [5] is “reduced edema and improved the clinical outcome”.
